{
  "source": "patent US20040038888A1",
  "about": "(priority 2002, published 2004)",
  "key": {"[1]": {"test_system": "differentiating neural stem cells", "test": "Thymidine incorporation, differentiating adult mouse NSC, adherent culture", "assay_type": "cell-based", "conditions": "adherent conditions, 3 days, relative to controls", "procedure": "To determine thymidine incorporation into DNA, mouse neurospheres, cultured as described above, from passage 2, were seeded in DMEM/F12 supplemented with B27 and 1% Fetal Calf Serum into a 96-well plate coated with poly-D-lysine as single cells (30000 cells/well) and cultured over-night. The following day the medium was replaced with Neurosphere medium and PACAP added to the concentrations indicated for a further 3 days. 3H-thymidine, 10 uCi/ml, was present the last 24 hours. Cells were harvested on to a filter paper and radioactivity was measured. 3H-thymidine (6,7 Ci/mmol) was from PerkinElmer."}, "[2]": {"test_system": "differentiating neural stem cells", "test": "Intracellular ATP assay, differentiating adult mouse NSC, adherent culture", "assay_type": "cell-based", "conditions": "varying concentrations, adherent conditions, 3 days, relative to control, dose-dependent", "procedure": "Adult mouse NSC were cultivated from the anterior lateral wall of the lateral ventricle of 5-6 week old mice as described in Example 2 (Method A).\nMouse neurospheres, cultured as described above, from passage 2, were seeded in DMEM/F12 supplemented with B27 and 1% Fetal Calf Serum into a 96-well plate coated with poly-D-lysine as single cells (30000 cells/well) and cultured over-night. The following day the medium was replaced with Neurosphere medium and PACAP added to the concentrations indicated. After 3 days incubation, intracellular ATP was measured using the ATP-SL kit from BioThema, Sweden, according to the manufacturer's instructions."}, "primary adult NSC": {"test_system": "primary adult NSC", "test": "Self renewal and multipotency assay", "assay_type": "cell-based, mouse", "conditions": "PACAP 100 nM", "procedure": "Anterior lateral wall of the lateral ventricle was dissociated as described in Example 2 (Method A), and the cells resuspended in Neurosphere medium without EGF. The cell suspension was divided into a 24-well plate in triplicate and PACAP added to a final concentration of 100 nM. After 7 days, the neurospheres were split into single cells, as described in Example 1 (Method A), but in the absence of EGF. The cells were replated as single cells, PACAP added to 100 nM and incubated a further 7 days. The cells were passaged one further time, and plated as single cells in Neurosphere medium supplemented with 1% Fetal Calf Serum (Gibco) and 100 nM PACAP (Bachem) onto poly-D-lysine plates. The cells were incubated over-night in which time they adhered to the poly-D-lysine plates and the medium was changed to Neurosphere medium supplemented with 100 nM PACAP38, but absent of Fetal Calf Serum. The cells were cultured for a further 3 days, after which they were washed twice in PBS (Gibco) and fixed for 15 min at room temperature with 4% Formaldehyde (Sigma) and permeabilised for 20 minutes at room temperature in 0,1% Triton X-100 (Sigma) in PBS. After fixation and permeabilisation the cells were labelled with mouse monoclonal anti β-III Tubulin (1:1000 Promega), rabbit anti GFAP (1:500 Sigma), and mouse anti CNPase (1:500 Sigma). Primary antibodies were visualized with anti mouse Texas-Red and anti rabbit FITC (1:500 Vector Laboratories). All antibodies were diluted in PBS with 0,1% Triton X-l00."}, "AP-1": {"test_system": "AP-1", "test": "AP-1 transcription factor reporter assay", "assay_type": "cell-based, mouse", "conditions": "PACAP 100 nM, 20 hours after induction, compared to non-induced cells", "procedure": "Vectors: Vector DNA containing reporter elements for AP-1 and empty cloning vector (pTAL), with a luciferace reporter were purchased from Promega. The vectors were propagated in E. coli strain JM-109 (Promega) and purified with Qiagens maxi-prep Kit (Qiagen). The concentration was diluted to approximately 1 mg/ml per vector.\nTransfection: Transient transfection was performed by seeding cells as above in suspension neurosphere cell culture and adherent neurosphere cell culture (1 to 3 day incubation) using 30,000 single cells/well. Each well was transiently transfected with […] plasmid, 0.6 μg Nupherin-neuron (Biomol) and 0,6 μl of Fugene-6 (Roche). Plasmid and Nupherin was mixed and diluted in DMEM/F12 to a total volume of 50 μl/well, and were incubated for 15 minutes prior to mixing with Fugene-6 that were diluted in DMEM/F12 to a total volume of 50 μl/well. The mix of plasmid and Nupherin and Fugene-6 were incubated for 20 min. The volume was adjusted to 100 μl prior to addition of 100 μl/well of transfection reagent.\nAssay: The following day the transiently transfected cells were applied with PACAP (Bachem) to final concentration of 100 nM/well, in the presence or absence of MEK inhibitor, […] (Sigma-Aldrich). Luciferace activity was analysed with steady glow (Promega) according to the instructions of the manufacturer. Cells were analysed 20 hours after induction with PACAP."}},
  "data": [
    {"substance": "pituitary adenylate cyclase-activating polypeptide [PACAP]", "values": [
      {"measurement": "incorporation of tritiated thymidine", "setting": "[1]", "value": "No significant difference"},
      {"measurement": "intracellular ATP levels, and hence cell number", "setting": "[2]", "value": "statistically significant increase in intracellular ATP levels"},
      {"measurement": "multiply-passaged neurospheres compared to EGF-treated neurospheres", "setting": "primary adult NSC", "value": "no relevant differences"},
      {"measurement": "self-renewal (secondary and tertiary neurospheres)", "setting": "primary adult NSC; absence of other mitogens", "value": "retained their ability to self-renew"},
      {"measurement": "multipotentiality (β-III Tubulin, GFAP, CNPase immunoreactivity)", "setting": "primary adult NSC; spontaneous differentiation on poly-D-lysine", "value": "retaining the potential of generating all the cells of the CNS"},
      {"measurement": "AP-1 expression (luciferace activity)", "setting": "AP-1", "value": "significantly induced"}
    ]}
  ]
}
